Holding throughout (experiment): Acyl-CoA oxidase assay (hydrogen peroxide colorimetry at 545 nm), Km value
Series [1] concerns acyl-CoA oxidase of Aspergillus candidus M-4815. It is filed as biochemical. To be noted: substrate of the assay method: palmitoyl-CoA; 37° C.; phosphate buffer pH 7.0 or tris-HCl buffer pH 8.0. As to the method:
(§1) Enzyme solution (10 μl) is added to a reaction mixture (0.5 ml) consisting of 0.2 M phosphate buffer (pH 7.0) or 0.2 M tris-HCl buffer (pH 8.0) (0.1 ml), 5 mM 4-aminoantipyrine (0.05 ml), 3 mM diethyl m-toludine (0.05 ml), peroxidase (0.5 mg/ml, 0.05 ml), 25 mM palmitoyl-CoA (0.02 ml) and distilled water (0.23 ml) and the mixture is incubated at 37° C. for 10 minutes. 4 M urea (0.5 ml) is added to stop the reaction, and 1% by weight of Triton X-100 (2 ml) is added thereto and the generated hydrogen peroxide is measured at 545 nm by colorimetry.
(§2) A unit (1 unit, 1 U) of enzyme activity is defined as the activity of enzyme which generates 1μ mole of hydrogen peroxide per minute.

Series [2] relates to acyl-CoA oxidase of Macrophomina phaseoli ATCC 14383. It is filed as biochemical. The conditions noted are these: substrate of the assay method: palmitoyl-CoA; 37° C.; phosphate buffer pH 7.0 or tris-HCl buffer pH 8.0. Here is the method: as §1, §2
The subject of series [3] is acyl-CoA oxidase of Arthrobacter sp. B-0720. It is filed as biochemical. The conditions noted are these: substrate of the assay method: palmitoyl-CoA; 37° C.; phosphate buffer pH 7.0 or tris-HCl buffer pH 8.0. As to the method: as §1, §2
For series [4], the system named is acyl-CoA oxidase of Monascus sp. M-4800. It is filed as biochemical. The conditions noted are these: substrate of the assay method: palmitoyl-CoA; 37° C.; phosphate buffer pH 7.0 or tris-HCl buffer pH 8.0. Here is the method:
as §1, §2

Series [5] has as its system acyl-CoA oxidase of Cladosporium resinae IFO 6367. It is filed as biochemical. To be noted: substrate of the assay method: palmitoyl-CoA; 37° C.; phosphate buffer pH 7.0 or tris-HCl buffer pH 8.0. As to the method: as §1, §2
Substrate in series [6]: CCCCCCCCCCCCCCCC(=O)SCCNC(=O)CCNC(=O)[C@H](O)C(C)(C)COP(=O)(O)OP(=O)(O)OC[C@H]1O[C@@H](n2cnc3c(N)ncnc32)[C@H](O)[C@@H]1OP(=O)(O)O
It is filed as biochemical, Saccharomyces cerevisiae. The conditions noted are these: other: substrate of the assay method: palmitoyl-CoA, 37° C., phosphate buffer pH 7.0 or tris-HCl buffer pH 8.0. As to the method:
as §1, §2

The term Km denotes the concentration of substrate that gives half-maximal velocity.

Regarding `CCCCCCCCCCCCCCCC(=O)SCCNC(=O)CCNC(=O)[C@H](O)C(C)(C)COP(=O)(O)OP(=O)(O)OC[C@H]1O[C@@H](n2cnc3c(N)ncnc32)[C@H](O)[C@@H]1OP(=O)(O)O` [palmitoyl-CoA], the Km in series [1] came out at 110 µM; in series [2], 87 µM; in series [3] it was 130 µM; in series [4] it was 150 µM; in series [5], 120 µM.

B1: acyl-CoA oxidase of Saccharomyces cerevisiae (strain Y 0036) (Saccharomyces cerevisiae S288C) (protein)
chain: MTRRTTINPDSVVLNPQKFIQKERADSKIKVDQVNTFLESSPERRTLTHALIDQIVNDPILKTDTDYYDAKKMQEREITAKKIARLASYMEHDIKTVRKHFRDTDLMKELQANDPDKASPLTNKDLFIFDKRLSLVANIDPQLGTRVGVHLGLFGNCIKGNGTDEQIRYWLQERGATLMKGIYGCFAMTELGHGSNVAQLQTRAVYDKQNDTFVIDTPDLTATKWWIGGAAHSATHAAVYARLIVEGKDYGVKTFVVPLRDPSTFQLLAGVSIGDIGAKMGRDGIDNGWIQFRNVVIPREFMLSRFTKVVRSPDGSVTVKTEPQLDQISGYSALLSGRVNMVMDSFRFGSKFATIAVRYAVGRQQFAPRKGLSETQLIDYPLHQYRVLPQLCVPYLVSPVAFKLMDNYYSTLDELYNASSSAYKAALVTVSKKLKNLFIDSASLKATNTWLIATLIDELRQTCGGHGYSQYNGFGKGYDDWVVQCTWEGDNNVLSLTSAKSILKKFIDSATKGRFDNTLDVDSFSYLKPQYIGSVVSGEIKSGLKELGDYTEIWSITLIKLLAHIGTLVEKSRSIDSVSKLLVLVSKFHALRCMLKTYYDKLNSRDSHISDEITKESMWNVYKLFSLYFIDKHSGEFQQFKIFTPDQISKVVQPQLLALLPIVRKDCIGLTDSFELPDAMLNSPIGYFDGDIYHNYFNEVCRNNPVEADGAGKPSYHALLSSMLGRGFEFDQKLGGAANAEILSKINK
notes: endogenous in cells; host or cells: Saccharomyces cerevisiae Y 0036 (FERM-P No. 5174; enzyme of the producing strain itself)
Consider B1, for which, in series [6], the Km stood at 0.50 mM.

(Values after patent US4346173A, “Process for the production of acyl-Coenzyme A oxidase” (Toyo Jozo Kabushiki Kaisha, priority 1979, dated 1982).)
